Where a name gives a salt, the structure may show the parent alone.
What was measured:
Male CD rats [1] = assay: forced swimming test, repeated administration; assay type: in vivo
Description: A common method for evaluating antidepressant effect called as the forced swimming test (Porsolt et al., Nature. 266, 730-732, (1977)) was used in the same manner as in Example 3. Male CD rats (230-250 g) were used in the tests. Forty animals were divided into groups of 8 animals treated with 20 mg/kg imipramine, 30 mg/kg, 60 mg/kg and 125 mg/kg Apocynum extract and purified water. Test solutions were orally administered between 3-4 p.m. daily. Rats were forced to swim for 15 min in a Plexiglas cylinder (40×18 cm i.d.) containing water at 25° C. at a level of 17 cm so that they preliminarily learned that they could not escape from the cylinder. […] All the tests were performed between 1-3 p.m. The images in the tapes were evaluated by a person who was not aware of the treatment of each group.
(§1) Test solutions were prepared by dissolving or suspending Apocynum extract prepared in Example 2 in purified water or dissolving imipramine-HCl (imipramine is a known tricyclic antidepressant) in purified water, and administered at a dose of 10 ml/kg body weight. The results from 8 experimental animals in each group were expressed in mean±SEM. Statistic significance as compared with control group was determined by ANOVA and multiple comparison tests were made by Fisher-PLSD (p<0.05:*).

Male CD rats [2] = assay: forced swimming test, acute administration; assay type: in vivo
Description: A common method for evaluating antidepressant effect called as the forced swimming test (Porsolt et al., Nature. 266, 730-732, (1977)) was used as follows. Male CD rats (230-250 g) were used in the tests. Forty animals were divided into groups of 8 animals treated with 30 mg/kg imipramine, 125 mg/kg, 250 mg/kg and 500 mg/kg Apocynum extract and purified water. Test solutions were orally administered 24 h, 5 h and 1 h before testing. Rats were forced to swim for 15 min in a Plexiglas cylinder (40×18 cm i.d.) containing water at 25° C. at a level of 17 cm so that they preliminarily learned that they could not escape from the cylinder. […] All the tests were performed between 1-3 p.m. The images in the tapes were evaluated by a person who was not aware of the treatment of each group.
as §1, with “mean ”SEM.” for “mean±SEM.”

CN(C)CCCN1c2ccccc2CCc2ccccc21 [Imipramine, imipramine-HCl]
Inactive period (seconds) (Male CD rats [1]; 20 mg/kg orally daily, repeated, 5 min swim 1 h after final administration, mean±SEM, n=8, control 161.54 ± 16.5, * p<0.05): 97.91 ± 9.6* seconds | inactive period as compared with control group (Male CD rats [1]; 20 mg/kg, repeated oral administration, ANOVA, Fisher-PLSD p<0.05): significantly shortened | Inactive period (seconds) (Male CD rats [2]; 30 mg/kg orally 24 h, 5 h and 1 h before testing, 5 min swim, mean±SEM, n=8, control 209 ± 20, * p<0.05): 137 ± 18* seconds | inactive period as compared with control group (Male CD rats [2]; 30 mg/kg, acute oral administration, ANOVA, Fisher-PLSD p<0.05): significantly shortened

Reference: patent publication US6737085B2, “Apocynum venetum extract for use as antidepressant” (Tokiwa Phytochemical Co., Ltd., priority 2000, dated 2004)
